In publication PMC5897267 (EJNMMI Research, 2018):
“And” between values parts separate entries of the source, which are not always exact repeats. Equal entries are not always repeated.

Tests used:
PSMA = target: T1, PSMA (Homo sapiens, UniProt Q04609); assay: Competitive binding assay (IC50) on LNCaP cells with ([125I]I-BA)KuE as radioligand; details: cold reference ligands, ([125I]I-BA)KuE 0.2 nM, 1 h, 4°C, mean ± SD, n = 3, read-out: PSMA affinity (IC50)
T1 construct: host or cells: LNCaP cells
Procedure: Competitive binding experiments (IC50) were carried out using PSMA-expressing LNCaP cells and ([^125I]I-BA)KuE as standard radioligand. […] Data represent means ± SD (n = 3).
Determination of the PSMA binding affinities (IC50)
The culture medium was removed and the cells were washed with 500 µL of HBSS (Hank´s balanced salt solution, Biochrom Berlin, Germany, containing 1% bovine serum albumin (BSA)). Before the experiment the cells were left to equilibrate in 200 µL HBSS (1% BSA) for 15 min on ice. Afterwards, 25 µL/well of solutions containing the respective unlabeled inhibitor in increasing concentrations (10- 10 – 10^-4 M in HBSS (1% BSA)) or either HBSS (1% BSA) as control were added, followed by the addition of 25 µL of ([125I]I-BA)KuE as a competitor. The final concentration of the radioiodinated inhibitor was 0.2 nM in all assays. For each concentration the experiments were performed in triplicates. Incubation of the cells was carried out for 60 min on ice and terminated by removal of the assay medium. The cells were thoroughly rinsed with 250 µL of HBSS and the washing medium was combined with the supernatant of the previous step, representing the amount of free radioligand.
Then, the cells were lysed using 250 µL of 1 N NaOH, and the lysat was transferred to vials and combined with 250 µL of HBSS, which was used for an additional washing step (bound activity). The Quantification of the amount of free and bound radioactivity was performed in a γ-counter.
performed using LNCaP cells and ([125I]I-BA)KuE (0.2 nM) as radioligand (1 h, 4°C)

[1] = tested on: PSMA-expressing LNCaP cells; assay: Internalization of the 18F-labeled ligands, normalized to ([125I]I-BA)KuE; type: cell-based, human; details: for Specific Internalization (1h; % of reference): LNCaP cells, 37°C, corrected for non-specific internalization (100 μM PMPA), reference ([125I]I-BA)KuE, mean ± SD, n = 3; for fold higher internalization rate than the reference ligands: versus 18F-DCFPyl and 18F-PSMA-1007, PSMA-expressing cells
Procedure: PSMA overexpressing LNCaP cells (CLS: 300265) were cultured in DMEM/Nutrition Mix F-12 with Glutamax-I (1:1) (Invitrogen, Life Technologies, Darmstadt, Germany) supplemented with 10% FCS and were maintained at 37 °C in a 5% CO2/humidified air atmosphere. For IC50 determination, approximately 150,000 cells/well were seeded on 24-well plates 1 day prior to the experiment. For internalization studies, 125,000 cells/well were seeded in PLL-coated 24-well plates. For cell counting, a Countesse automated cell counter (Invitrogen, Carlsbad, USA) was used.
PSMA affinity and internalization kinetics of the ^18F-labeled compounds were determined according to a previously published protocol. A detailed description is provided online in the supporting information.
Competitive binding experiments (IC50) were carried out using PSMA-expressing LNCaP cells and ([^125I]I-BA)KuE as standard radioligand. Internalization kinetics of the ^18F-labeled derivatives were also performed using PSMA-expressing LNCaP cells and ([^125I]I-BA)KuE (0.2 nM) as an internal reference. Data were corrected for non-specific internalization in the presence of 100 μM 2-phosphonomethyl pentanedioic acid (PMPA) and normalized to the specific internalization observed for the radioiodinated reference compound assayed in a parallel experiment. Data represent means ± SD (n = 3).
Internalization studies of the 18F-labeled EuE-based inhibitors, 18F-DCFPyl and 18F-PSMA-1007 were performed according to a previously published protocol. Briefly, after washing the cells with 0.5 mL DMEM-F12 (5% BSA), the cells were preconditioned for a minimum of 15 min with 200 µL DMEM-F12 (5% BSA) at 37°C. Then, 25 µL (per well) of either assay medium (total internalization) or of a 100 µM 2-PMPA solution (non-specific internalization) were added, followed by addition of 25 µL of assay medium containing the respective 18F-labeled PSMA inhibitor or ([125I]I-BA)KuE (0.2 nM). The internalization kinetics were determined by cell incubation at 37°C for 5, 15, 30, and 60 min, respectively. All experiments were carried out in triplicate for each time point (control and blocking).
Incubation was terminated by placing the plate on ice and by removal of the incubation medium. The cells were subsequently rinsed with 250 µL DMEM-F12 (5% BSA) and combined with the supernatant of the previous step (amount of free radioligand). To remove receptor surface-bound radioactivity, the cells were incubated with 250 µL of ice cold PMPA in PBS (10 µM) for 10 min. After removal of the supernatant, the cells were thoroughly rinsed with another 250 µL of ice-cold PBS and both fractions were combined (amount of receptor-bound radioactivity). By incubation of the cells with 250 µL 1N NaOH (5 min), the internalized activity was released, the suspension transferred to vials, and combined with 250 µL of 1N NaOH used for subsequent rinsing of the wells. Quantification of the amount of free, PMPA-releasable, and internalized activity was performed in a γ-counter. For analysis of the internalization, data for both the 18F-labeled compound of interest and for the reference ([125I]I-BA)KuE in the same experiment were first corrected by the amount of non-specific internalization (adding of 100 µM PMPA), respectively, and then each was normalized to the amount of internalized ligand in the absence of unlabeled competitor (100%). To eliminate the influence of cell count and cell viability on the absolute internalization values, data (60 min) are expressed as the ratio of the internalization of the compound of interest to the internalization (60 min) found for ([125I]I-BA)KuE in the same experiment (Fig 2, Fig S3). Data represent means ± SD (n=3).
18F-PSMA-1007 and reference ([125I]I-BA)KuE into LNCaP cells (37°C) (mean ± SD [n = 3]) *Specific internalization of the reference compound ([125I]I-BA)KuE assayed in a parallel experiment and used for data […]
The results of the metabolite analyses of the 18F-labeled EuE-based inhibitors, as well as of 18F-PSMA- […]

[2] = target: T2, human serum albumin (HSA) (Homo sapiens, UniProt P02768); assay: Plasma protein binding on Chiralpak HSA column; type: in vitro ADME
T2 construct: purchased Chiralpak (manufacturer not given)
Procedure: Plasma protein binding of the tracers was determined using an analytical Chiralpak human serum albumin (HSA) column (50 × 3 mm, 5 μm) according to a previously published protocol with minor changes.

LNCaP-tumor-xenografts = assay: Biodistribution in LNCaP-tumor-bearing SCID mice; type: in vivo; details: 1 h p.i., mean ± SD, n = 4
Procedure: To induce LNCaP tumor growth, male CB-17 SCID mice (6–8 weeks, Charles River Laboratories, Sulzfeld, Germany) were inoculated subcutaneously onto the right shoulder with LNCaP cells (approximately 1 × 10^7 cells/200 μL DMEM/Nutrition Mix F-12 with Glutamax-I (1:1) medium and Matrigel (BD Biosciences, Germany) (1:1)). After 3–5 weeks, tumor size reached 4–8 mm in diameter, and the animals were used for in vivo studies.
About 0.8–1 MBq of the ^18F-labeled tracer were injected into the tail vein of the mice (n = 8) under isoflurane anesthesia. Animals were sacrificed at 1 and 2 h p.i.; the organs of interest were dissected, and the activity in the weighed tissues samples was quantified using a γ-counter.
The high plasma protein binding and therefore delayed blood pool clearance of ^18F-PSMA-1007 leads to low tumor-to-blood and tumor-to-spleen ratios, especially 2 h p.i. (Fig. 5; Additional file 1: Figure S5).
Data are given in % IA/g are means ± SD (n = 4 animals per group and time point)

[3] = CD-1, mouse, in vivo, 1 h
Procedure: (§14) Approximately 60–70 MBq of the ^18F-labeled inhibitors were injected into the tail vein of severe combined immunodeficiency (SCID) mice. The animals were sacrificed 1 h p.i., blood and urine were collected, and kidneys were dissected and after freezing with liquid nitrogen, homogenized with a ball mill and extracted with 1 mL PBS containing 200 nmol PMPA. After centrifugation (15,000g) and ultrafiltration, the extracts were analyzed by reversed phase high-performance liquid chromatography (RP-HPLC). Blood samples were centrifuged to separate the plasma from the blood cells. Additionally, plasma proteins were removed by precipitation with acetonitrile (10 min, on ice), subsequent centrifugation and ultrafiltration. The blood extracts and the urine samples were analyzed using RP-HPLC. For RP-HPLC, a Nucleosil 100 C18 (5 μm, 125 × 4.0) column and different HPLC-systems were used (EuE-based inhibitors: flow rate: 2 mL/min; Gradient: 0–30% B in 20 min; HPLC-System A (see Additional file 1); ^18F-PSMA-1007: flow rate: 1.5 mL/min; Gradient: 5–55% B in 10 min; HPLC-System B (see Additional file 1); solvent A: 0.1% trifluoroacetic acid (TFA) in water, solvent B: 0.1% TFA in MeCN).

mCRPC patient = assay: PET/MR imaging of a mCRPC patient (compassionate use); type: in vivo, human; details: PET/MR 62 min after injection of 158 MBq
Procedure: Based on the promising preclinical results obtained for EuE-k-^18F-FBOA (1) a mCRPC patient (PSA 392 ng/ml) was imaged under compassionate use. The agent was applied in compliance with The German Medicinal Products Act, Arzneimittelgesetz (AMG) §13 2b, and in accordance with the responsible regulatory body (Government of Oberbayern). The patient underwent PET/MR imaging 62 min after injection of 158 MBq of EuE-k-^18F-FBOA (Fig. 6).
Images show the typical biodistribution of PSMA ligands with minimal blood pool retention.

[4] = Metabolite analysis in mice, RP-HPLC of blood, urine and kidney extracts; details: 1 h p.i.
Procedure: as §14

T2 sequence (P02768 25-609): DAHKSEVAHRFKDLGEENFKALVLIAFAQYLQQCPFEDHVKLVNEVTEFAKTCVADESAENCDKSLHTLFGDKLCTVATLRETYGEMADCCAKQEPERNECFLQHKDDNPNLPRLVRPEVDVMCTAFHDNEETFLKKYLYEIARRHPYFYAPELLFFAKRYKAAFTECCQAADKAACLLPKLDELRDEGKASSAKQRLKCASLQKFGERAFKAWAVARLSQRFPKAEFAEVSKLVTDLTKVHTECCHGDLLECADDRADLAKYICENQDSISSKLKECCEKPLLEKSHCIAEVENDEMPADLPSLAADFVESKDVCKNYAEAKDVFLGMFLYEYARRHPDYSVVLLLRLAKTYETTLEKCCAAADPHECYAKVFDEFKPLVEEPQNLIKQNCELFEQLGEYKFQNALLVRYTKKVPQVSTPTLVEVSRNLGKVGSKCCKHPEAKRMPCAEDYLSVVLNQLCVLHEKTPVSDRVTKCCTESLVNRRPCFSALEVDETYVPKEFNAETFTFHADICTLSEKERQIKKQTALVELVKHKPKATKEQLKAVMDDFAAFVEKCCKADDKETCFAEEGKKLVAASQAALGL
T1 sequence (Q04609 whole entry): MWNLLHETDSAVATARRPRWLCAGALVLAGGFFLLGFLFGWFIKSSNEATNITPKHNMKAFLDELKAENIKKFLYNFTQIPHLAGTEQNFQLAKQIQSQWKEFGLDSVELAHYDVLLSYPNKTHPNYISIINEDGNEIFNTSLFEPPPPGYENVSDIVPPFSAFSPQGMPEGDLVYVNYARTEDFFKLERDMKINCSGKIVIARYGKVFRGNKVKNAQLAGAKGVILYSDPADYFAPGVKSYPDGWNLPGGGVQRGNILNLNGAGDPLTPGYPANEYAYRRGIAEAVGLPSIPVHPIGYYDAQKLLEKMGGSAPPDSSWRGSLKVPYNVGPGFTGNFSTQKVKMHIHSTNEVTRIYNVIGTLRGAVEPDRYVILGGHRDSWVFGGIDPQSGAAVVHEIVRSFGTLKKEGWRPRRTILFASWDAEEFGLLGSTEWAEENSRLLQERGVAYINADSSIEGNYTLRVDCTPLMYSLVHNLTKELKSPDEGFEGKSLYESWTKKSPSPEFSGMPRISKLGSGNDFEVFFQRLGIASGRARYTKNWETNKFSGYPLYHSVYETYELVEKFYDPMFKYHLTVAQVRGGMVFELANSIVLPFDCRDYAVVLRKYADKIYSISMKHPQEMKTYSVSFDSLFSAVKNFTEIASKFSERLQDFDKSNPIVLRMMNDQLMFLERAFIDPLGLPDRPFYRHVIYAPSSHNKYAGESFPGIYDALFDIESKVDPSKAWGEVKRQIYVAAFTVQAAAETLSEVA

Compound | IC50 (PSMA) [nM] | Specific Internalization (1h; % of reference) [1] | fold higher internalization rate than the reference ligands [1] [fold] | enhanced internalization into LNCaP cells compared to EuE-k-18F-FBOA ([1]; versus EuE-k-18F-FBOA) | Human serum albumin binding (plasma protein binding) [2] | tumor accumulation (LNCaP-tumor-xenografts) [% IA/g] | intact tracer in blood, urine and kidneys [3] [%] | uptake in bone and lymph node metastases, mean SUVmax (mCRPC patient) | uptake in bone and lymph node metastases, mean SUVmean (mCRPC patient) | uptake in the kidneys (SUVmean) (mCRPC patient) | uptake in the liver (SUVmean) (mCRPC patient) | uptake in the salivary glands (SUVmean) (mCRPC patient) | uptake in the spleen (SUVmean) (mCRPC patient) | more hydrophilic metabolite, share of total activity in the kidneys ([4]; kidneys) [%] | more hydrophilic metabolite, share of total activity in the urine ([4]; urine) [%]
O=C(O)CCC(NC(=O)NC(CCC(=O)NC(CCCCNC(=O)CCNC(=O)c1ccc([18F])nc1)C(=O)O)C(=O)O)C(=O)O (stereo not drawn) [EuE-k-β-a-^18F-FPyl] | 1.1 ± 0.2 | 323 ± 2 % of reference | 2.7 | twofold | 12.0% | 13.0 ± 1.0 | 100 | – | – | – | – | – | – | – | –
O=C(O)CCC(NC(=O)NC(CCC(=O)NC(CCCCNC(=O)CON=Cc1ccc([18F])cc1)C(=O)O)C(=O)O)C(=O)O (stereo not shown) [EuE-k-^18F-FBOA] | 4.2 ± 0.4 | 165 ± 4 % of reference | 1.4 | – | 13.4% | 12.7 ± 2.0 | 100 | 21.6 (range 15.4–28.2) | 14.7 (range 9.2–19) | 14.0 | 6.4 | 5.8 | 6.1 | – | –
O=C(O)CCC(NC(=O)NC(CCCCNC(=O)c1ccc([18F])nc1)C(=O)O)C(=O)O (stereo not shown) [^18F-DCFPyl, 2-(3-{1-Carboxy-5-[(6-[18F]fluoro-pyridine-3-carbonyl)-amino]-pentyl}-ureido)-pen tanedioic acid, reference compound] | – | 118 ± 4 % of reference | – | – | 14.3% | 7.3 ± 1.0 | – | – | – | – | – | – | – | – | –
O=C(O)CC[C@H](NC(=O)N[C@@H](CCCCNC(=O)[C@H](Cc1ccc2ccccc2c1)NC(=O)c1ccc(CNC(=O)[C@H](CCC(=O)O)NC(=O)[C@H](CCC(=O)O)NC(=O)c2ccc(F)nc2)cc1)C(=O)O)C(=O)O [^18F-PSMA-1007] | 4.2 ± 0.5 | – | – | – | – | – | – | – | – | – | – | – | – | – | –
O=C(O)CC[C@H](NC(=O)N[C@@H](CCCCNC(=O)[C@H](Cc1ccc2ccccc2c1)NC(=O)c1ccc(CNC(=O)[C@H](CCC(=O)O)NC(=O)[C@H](CCC(=O)O)NC(=O)c2ccc([18F])nc2)cc1)C(=O)O)C(=O)O [^18F-PSMA-1007] | – | 118 ± 5 % of reference | – | – | 98% and 97.8% | 7.1 ± 1.5 | – | – | – | – | – | – | – | 4 | 2
